US12440496B2, “Natriuretic peptide receptor a agonists useful for the treatment of cardiometabolic diseases, kidney disease and diabetes” (Merck Sharp & Dohme LLC, priority 2019, dated 2025)
Counter-ions that a name gives are not always drawn.

Target: T1, hNPRA (Homo sapiens, UniProt P16066)
T1 construct: expressed in transfected cells
T1 sequence (P16066 33-1061): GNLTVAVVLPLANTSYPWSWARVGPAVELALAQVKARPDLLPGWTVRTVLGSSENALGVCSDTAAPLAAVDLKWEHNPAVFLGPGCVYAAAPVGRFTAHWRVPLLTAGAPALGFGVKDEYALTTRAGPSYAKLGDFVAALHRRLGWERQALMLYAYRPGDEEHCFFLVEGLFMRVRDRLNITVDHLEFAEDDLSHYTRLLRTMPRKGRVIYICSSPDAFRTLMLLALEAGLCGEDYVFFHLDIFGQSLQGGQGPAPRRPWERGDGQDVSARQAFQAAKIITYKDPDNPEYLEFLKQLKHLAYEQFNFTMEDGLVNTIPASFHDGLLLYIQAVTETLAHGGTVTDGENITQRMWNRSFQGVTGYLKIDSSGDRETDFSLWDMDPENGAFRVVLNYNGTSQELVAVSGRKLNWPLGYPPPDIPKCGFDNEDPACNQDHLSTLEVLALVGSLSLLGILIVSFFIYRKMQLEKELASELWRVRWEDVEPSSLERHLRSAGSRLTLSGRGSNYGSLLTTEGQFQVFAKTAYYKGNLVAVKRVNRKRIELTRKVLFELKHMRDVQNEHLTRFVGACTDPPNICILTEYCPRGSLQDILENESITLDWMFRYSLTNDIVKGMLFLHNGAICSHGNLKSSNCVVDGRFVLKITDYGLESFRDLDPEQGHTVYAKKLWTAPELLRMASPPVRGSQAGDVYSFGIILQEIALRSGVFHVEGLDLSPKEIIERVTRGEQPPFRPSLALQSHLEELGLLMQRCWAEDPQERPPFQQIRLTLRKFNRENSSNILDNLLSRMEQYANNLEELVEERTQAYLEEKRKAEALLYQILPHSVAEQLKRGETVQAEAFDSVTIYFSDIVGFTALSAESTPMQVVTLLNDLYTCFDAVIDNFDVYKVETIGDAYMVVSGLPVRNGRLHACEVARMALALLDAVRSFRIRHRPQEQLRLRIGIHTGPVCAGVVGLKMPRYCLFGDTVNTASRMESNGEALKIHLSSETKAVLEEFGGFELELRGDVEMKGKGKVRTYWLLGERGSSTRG
Assay: NPRA Functional Cell Assay (cGMP HTRF, NPRA HEK JumpIn stable cells)
Format: cell-based
Conditions: cGMP production, 1 hour at 37° C., 10-point dose response
Method in brief: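 cGMP HTRF read-out after 1 hour compound treatment at 37° C. of human NPRA-expressing HEK JumpIn cells, 1500 cells/well, in buffer with phosphodiesterase inhibitors IBMX and RO20 (100 uM each). Signal converted to [cGMP] by calibration curve; EC50s fitted by 4-parameter logistic; 50 nM h-ANP as positive response.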

SMILES	EC50 [nM]
CC(C)(C)[C@H]1CCc2nc3sc(C(=O)N[C@H](CCN4CCC(O)CC4)c4cccc(N5CC6(CCNCC6)OC5=O)c4)nc3cc2C1 (racemic) [Example 116, rac-(7S)-7-tert-butyl-N-[rac-(1R)-3-(4-hydroxy-1-piperidyl)-1-[3-(2-oxo-1-oxa-3-aza-8-azoniaspiro [4.5]decan-3-yl)phenyl]propyl]-5,6,7,8-tetrahydrothiazolo[5,4-b] quinoline-2-carboxamide; 2,2,2-trifluoroacetate]	622
CC(C)(C)[C@H]1CCc2nc3sc(C(=O)N[C@H](CCN4CCC(O)CC4)c4ccc(-c5nc[nH]c5C#N)cc4)nc3cc2C1 (racemic) [Example 178, rac-(7S)-7-tert-butyl-N-[rac-(1R)-1-[4-(5-cyano-1H-imidazol-4-yl)phenyl]-3-(4-hydroxy-1-piperidyl)propyl]-5,6,7,8-tetrahydrothiazolo[5,4-b]quinoline-2-carboxamide]	1250
CN(C)CC[C@@H](NC(=O)c1nc2cc3c(nc2s1)CC[C@H](C(C)(C)C)C3)c1cccc(C(=O)NCCN)c1 (racemic) [Example 92, rac-(7S)-7-tert-butyl-N-[rac-(1R)-1-[3-(2-aminoethylcarbamoyl)phenyl]-3-(dimethyl-amino)propyl]-5,6,7,8-tetrahydrothiazolo[5,4-b] quinoline-2-carboxamide]	348
CC(C)(C)[C@H]1CCc2nc3sc(C(=O)N[C@H](CCN4CCCCC4)c4ccc(-c5ccoc5)cc4)cc3cc2C1 (racemic) [Example 3, rac-(6S)-6-tert-butyl-N-[rac-(1R)-1-[4-(3-furyl)phenyl]-3-(1-piperidyl)propyl]-5,6,7,8-tetrahydrothieno[2,3-b]quinoline-2-carboxamide]	675
COC1CCN(CC[C@@H](NC(=O)c2nc3cc4c(nc3s2)CC[C@H](C(C)(C)C)C4)c2cccc(C(=O)NC3CN(C)C3)c2)CC1 (racemic) [Example 109, rac-(7S)-7-tert-butyl-N-[rac-(1R)-3-(4-methoxy-1-piperidyl)-1-[3-[(1-methylazetidin-1-ium-3-yl)carbamoyl]phenyl]propyl]-5,6,7,8-tetrahydrothiazolo[5,4-b] quinoline-2-carboxamide; 2,2,2-trifluoroacetate]	629
CC(C)(C)[C@H]1CCc2nc3sc(C(=O)N[C@H](CCN4CCC(O)CC4)c4cccc(C(=O)N5CC(N6CCOCC6)C5)c4)nc3cc2C1 (racemic) [Example 157, rac-(7S)-7-tert-butyl-N-[rac-(1R)-3-(4-hydroxy-1-piperidyl)-1-[3-(3-morpholinoazetidine-1-carbonyl)phenyl]propyl]-5,6,7,8-tetrahydrothiazolo[5,4-b]quinoline-2-carboxamide]	876
CC(C)(C)[C@H]1CCc2nc3sc(C(=O)NC(CCN4CCNCC4)c4ccccc4)cc3cc2C1 (stereo partly drawn) [Example 245, (6S)-6-tert-butyl-N-(1-phenyl-3-piperazin-1-ylpropyl)-5,6,7,8-tetrahydrothieno[2,3-b]quinoline-2-carboxamide]	6320
CC(C)(C)[C@H]1CCc2nc3sc(C(=O)N[C@H](CCN4CC[C@@H](C(=O)O)[C@@H](F)C4)c4ccc(-c5cnc(O)c(F)c5)cc4)nc3cc2C1 (racemic) [Example 201, rac-(3R,4S)-3-fluoro-1-[rac-(3R)-3-[4-(5-fluoro-6-hydroxy-3-pyridyl)phenyl]-3-[[rac-(7S)-7-tert-butyl-5,6,7,8-tetrahydrothiazolo[5,4-b]quinoline-2-carbonyl]amino]propyl]piperidin-1-ium-4-carboxylic acid; formate]	447
CC(C)(C)[C@H]1CCc2nc3sc(C(=O)N[C@H](CCN4CCC(O)CC4)c4cccc(C(=O)N5CC(N)C5)c4)nc3cc2C1 (racemic) [Example 147, rac-(7S)-7-tert-butyl-N-[rac-(1R)-1-[3-(3-aminoazetidine-1-carbonyl)phenyl]-3-(4-hydroxy-1-piperidyl)propyl]-5,6,7,8-tetrahydrothiazolo[5,4-b]quinoline-2-carboxamide]	640
CC(C)(C)[C@H]1CCc2nc3sc(C(=O)N[C@H](CCN4CCC(O)CC4)c4ccc(N5CCC(O)CC5)nc4)nc3cc2C1 (racemic) [Example 189, rac-(7S)-7-tert-butyl-N-[rac-(1R)-3-(4-hydroxy-1-piperidyl)-1-[6-(4-hydroxy-1-piperidyl)-3-pyridyl]propyl]-5,6,7,8-tetrahydrothiazolo[5,4-b]quinoline-2-carboxamide]	1380
CC(C)(C)[C@H]1CCc2nc3sc(C(=O)N[C@H](CCN4CCC(O)CC4)c4cccc(N5CCOC5=O)c4)nc3cc2C1 (racemic) [Example 120, rac-(7S)-7-tert-butyl-N-[rac-(1R)-3-(4-hydroxypiperidin-1-ium-1-yl)-1-[3-(2-oxooxazolidin-3-yl)phenyl]propyl]-5,6,7,8-tetrahydrothiazolo[5,4-b] quinoline-2-carboxamide; 2,2,2-trifluoroacetate]	1670
CC(C)(C)[C@H]1CCc2nc3sc(C(=O)N[C@H](CCN4CCC(C(=O)O)CC4)c4ccc(N5CC(=O)NC5=O)nc4)nc3cc2C1 [Example 222, 1-((R)-3-((S)-7-(tert-butyl)-5,6,7,8-tetrahydrothiazolo[5,4-b]quinoline-2-carboxamido)-3-(6-(2,4-dioxoimidazolidin-1-yl)pyridin-3-yl)propyl)piperidine-4-carboxylic acid]	626
CC(C)(C)[C@H]1CCc2nc3sc(C(=O)N[C@H](CCN4CCC(O)CC4)c4ccc(OCCO)nc4)nc3cc2C1 (racemic) [Example 192, rac-(7S)-7-tert-butyl-N-[rac-(1R)-1-[6-(2-hydroxyethoxy)-3-pyridyl]-3-(4-hydroxy-1-piperidyl)propyl]-5,6,7,8-tetrahydrothiazolo[5,4-b]quinoline-2-carboxamide]	665
CN(C)CC[C@@H](NC(=O)c1cc2cc3c(nc2s1)CC[C@H](C(C)(C)C)C3)c1ccc(-c2ccc(=O)[nH]c2)cc1 (racemic) [Example 25, dimethyl-[rac-(3R)-3-[4-(6-oxo-1H-pyridin-3-yl)phenyl]-3-[{rac-(6S)-6-tert-butyl-5,6,7,8-tetrahydrothieno[2,3-b]quinoline-2-carbonyl]amino]propyl] ammonium;formate]	218
CC(C)(C)[C@H]1CCc2nc3sc(C(=O)N[C@H](CCN4CCC(O)CC4)c4ccc(N5CCOCS5(=O)=O)nc4)nc3cc2C1 [Example 273, (S)-7-(tert-butyl)-N-((R)-1-(6-(3,3-dioxido-1,3,4-oxathiazinan-4-yl)pyridin-3-yl)-3-(4-hydroxypiperidin-1-yl)propyl)-5,6,7,8-tetrahydrothiazolo[5,4-b]quinoline-2-carboxamide]	182
CC(C)(C)[C@H]1CCc2nc3sc(C(=O)N[C@H](CCNCCO)c4ccc(-c5ccc(=O)[nH]c5)cc4)cc3cc2C1 (racemic) [Example 49, 2-hydroxyethyl-[rac-(3R)-3-[4-(6-oxo-1H-pyridin-3-yl)phenyl]-3-[[rac-(6S)-6-tert-butyl-5,6,7,8-tetrahydrothieno[2,3-b]quinoline-2-carbonyl]amino}propyl] ammonium;formate]	682
CC(C)[C@]1(F)CCc2nc3sc(C(=O)N[C@H](CCN4CCC(C(=O)O)CC4)c4ccc(-c5ccnnc5)nc4)nc3cc2C1 [Example 270, 1-((R)-3-((S)-7-fluoro-7-isopropyl-5,6,7,8-tetrahydrothiazolo[5,4-b]quinoline-2-carboxamido)-3-(6-(pyridazin-4-yl)pyridin-3-yl)propyl)piperidine-4-carboxylic acid]	1210
CC(C)(C)[C@H]1CCc2nc3sc(C(=O)N[C@H](CCN4CCC(O)CC4)c4ccc(-c5ccnc(N)c5)cc4)nc3cc2C1 (racemic) [Example 168, rac-(7S)-7-tert-butyl-N-[rac-(1R)-1-[4-(2-amino-4-pyridyl)phenyl]-3-(4-hydroxy-1-piperidyl)propyl]-5,6,7,8-tetrahydrothiazolo[5,4-b]quinoline-2-carboxamide]	773
COCCN(C)CC[C@@H](NC(=O)c1nc2cc3c(nc2s1)CC[C@H](C(C)(C)C)C3)c1ccc(NS(=O)(=O)N(C)C)nc1 (racemic) [Example 210, 2-methoxyethyl-methyl-[rac-(3R)-3-[6-(dimethylsulfamoylamino)-3-pyridyl]-3-[rac-(7S)-7-tert-butyl-5,6,7,8-tetrahydrothiazolo[5,4-b]quinoline-2-carbonyl]amino]propyl]ammonium; 2,2,2-trifluoroacetate]	764
